# Reference: patent US11351131B2, “Anti-inflammatory composition” (NEOPHARM CO., LTD., priority 2016, dated 2022)
# What was measured:
# IL-17A = assay: Anti-inflammatory effect: IL-17A expression in atopic dermatitis-induced 3D skin model (immunohistochemistry); assay type: cell-based; details: compared with the atopic dermatitis-induced skin model, 72 hours, quantified immunohistochemistry, read-out: IL-17A inhibitory effect
# Method: (§1) In order to measure the anti-inflammatory efficacy, atopic dermatitis was induced with respect to IL-8 and IL-17A, which are inflammation-inducing cytokines, and expression amounts thereof were measured.
# (§2) In order to induce atopic dermatitis, the 3D culture tissue (EpiDerm Full Thickness 400, sold by MatTek) media containing Poly (I:C), TNF-α, IL-4 and IL-13 were used, and treated for 72 hours with N-(2-hydroxyethyl)octanamide at a final concentration of 100 μM. Then, the 3D culture tissue was immobilized on formalin to make a paraffin block, and the degree of expression of inflammation-inducing cytokine was evaluated.
# (§3) In FIG. 1, AD represents a skin model in which atopic dermatitis was induced, and the anti-inflammatory effect was evaluated based on the expression amounts of IL-8 and IL-17A.
# (§4) Further, the inhibitory effect of each cytokine was quantified based on the results obtained through the immunohistochemistry obtained in FIG. 1, and shown in FIG. 2.
# IL-8 = assay: Anti-inflammatory effect: IL-8 expression in atopic dermatitis-induced 3D skin model (immunohistochemistry); assay type: cell-based; details: compared with the atopic dermatitis-induced skin model, 72 hours, quantified immunohistochemistry, read-out: IL-8 inhibitory effect
# Method: as §1, §2, §3, §4
# atopic dermatitis = assay: Atopic dermatitis improvement effect (EASI score); assay type: in vivo, human; details: 30 pediatric patients with atopic dermatitis, twice a day for 4 weeks
# Method: In order to measure atopic dermatitis improvement effect, the anti-inflammatory compositions were prepared according to the following Examples. Here, the atopic dermatitis improvement effect was measured using an eczema area severity index (EASI) score. 30 pediatric patients with atopic dermatitis were treated twice a day for 4 weeks, and then effects on atopic symptoms were measured. Here, as a negative control group, a test group in which the active ingredient was not used was adopted.
# [1] = tested on: human fibroblast (ATCC 2076); assay: Confirmation of cytotoxicity (MTT cell viability); assay type: cell-based; details: for Cell viability (%): human fibroblast, MTT
# Method: The cell viability for human fibroblast (ATCC 2076) was measured using the anti-inflammatory composition prepared in the following Examples.
# The human fibroblast (ATCC 2076) with a concentration of 5×10^4 cells/ml was inoculated into a 24-well culture plate of Iscove's Modified Dulbecco's Medium (IMDM, GIBCO) containing 10% bovine serum. […] Then, the supernatant was removed, the cells were washed with 200 μl of 5% phosphate buffered saline (PBS), 1.0 ml of MTT solution was added to each well, and after 4 hours, and the MTT was removed. Next, 1.0 ml of DMSO was added to each well, and incubation was performed overnight at 37° C. The absorbance at 570 nm was measured to determine the cell viability using Equation 1 below, and results thereof are shown in Table 1 below. Here, as a negative control group, a test group in which the active ingredient was not used was adopted. Cell viability (%)=(A570λ value/B570λ value)×100 [Equation 1]
# A: Absorbance value at 570 nm of Example
# B: Absorbance value at 570 nm of negative control group
smiles,measurement,setting,value
"CCCCCCCC(=O)NCCO [Example 1, N-(2-hydroxyethyl)octanamide]",inhibition at 100 µM,IL-17A,≥ 57.5%
same,inhibition at 100 µM,IL-8,≥ 48.6%
same,Atopic dermatitis improvement effect (EASI score),atopic dermatitis,significant numerical decrease
same,Cytotoxicity,[1]; in the concentration range of the evaluation method,no cytotoxicity
same,Cell viability (%),[1]; used amount 0.00064 μM,100%
same,Cell viability (%),[1]; used amount 0.0032 μM,102%
same,Cell viability (%),[1]; used amount 0.016 μM,97%
same,Cell viability (%),[1]; used amount 0.08 μM,98%
same,Cell viability (%),[1]; used amount 0.4 μM,98%
same,Cell viability (%),[1]; used amount 2 μM,101%
same,Cell viability (%),[1]; used amount 10 μM,103%
same,Cell viability (%),[1]; used amount 50 μM,98%
same,Cell viability (%),[1]; used amount 250 μM,109%
